Laboratory results published in publication PMC10147685, “Safety, tolerability, and pharmacokinetics of Aurora kinase B inhibitor AZD2811: a phase 1 dose-finding study in patients with advanced solid tumours” (British Journal of Cancer, 2023).

Tested on: patients with advanced solid tumours
Test: Phase 1 dose-escalation: safety, DLTs, AEs (CTCAE v4.03)
Type: in vivo
Method: AZD2811 was administered as an IV infusion over 2 h. The study included 12 dose-escalation cohorts. In Cohorts 1–6, dosing took place on Days 1 and 4 of a 28-day cycle, at 15 mg, 25 mg, 38 mg, 51 mg, 100 mg, and 200 mg. In Cohort 1, the starting dose was to be administered to a single patient on Days 1 and 4. […] Starting with Cohort 2, at least 3 evaluable patients were enrolled at each dose level (3 + 3 design) and were evaluated for 1 cycle before escalation to the next dose level. If one patient experienced a DLT, an additional 3 patients were treated with the same dose. Therefore, a maximum of 6 evaluable patients could be enrolled per dose level.
In Cohort 7, the Day 4 dose was removed from the schedule, and patients received AZD2811 200 mg on Day 1 of a 28-day cycle. Granulocyte colony-stimulating factor (G-CSF; filgrastim [short-acting G-CSF] or pegfilgrastim [long-acting G-CSF]) as primary prophylaxis for neutropenia was optional in Cohorts 7–9. In Cohorts 8–12, the cycle length was reduced, so dosing occurred on Day 1 of a 21-day cycle, at doses of 200–600 mg. Patients in Cohorts 10–12 received mandatory G-CSF on Day 8 after dosing in Cycle 1 as primary prophylaxis for neutropenia. PEGylated G-CSF (e.g. pegfilgrastim) could not be given later than Day 8 (in a 21-day cycle) due to its long half-life. G-CSF had to be discontinued at least 48 h prior to the next dose of AZD2811.
A DLT was defined as any of the following toxicities that occurred during the DLT evaluation period (the first 28 days [if a 28-day cycle] or the first 21 days [if a 21-day cycle] from the start of AZD2811), unless unequivocally due to underlying malignancy or an extraneous cause: grade 4 neutropenia for >7 days or febrile neutropenia; grade 4 thrombocytopenia or grade 3 thrombocytopenia associated with bleeding; concurrent grade ≥3 elevation of total bilirubin, alanine aminotransferase (ALT), aspartate aminotransferase (AST) or alkaline phosphatase (ALP) lasting >48 h, or any change in liver function test results consistent with Hy’s Law; any grade ≥3 non-haematological AE (except grade 3 nausea, vomiting, stomatitis and/or diarrhoea that was controlled within 4 days with standard supportive care, or grade 3 elevations in ALT/AST that return to meet initial eligibility criteria within 7 days of study drug interruption); inability to receive all doses in Cycle 1 due to treatment-related toxicity; or grade ≥2 non-haematological toxicity at any time during treatment that was deemed to be dose-limiting by the investigator and the medical monitor.
AEs were assessed throughout the treatment and follow-up periods. Patients were followed until all treatment-related toxicity resolved, or for at least 30 days post-study drug discontinuation. AEs were graded according to CTCAE v4.03. Venous blood samples (4 mL) for measurement of AZD2811 concentrations were collected at Cycle 1 Days 1–6, 8, 15, 16, and 22 and Cycle 2 Day 1 in Cohorts 1–6; Cycle 1 Days 1, 4, 8, 12, and 22 in Cohort 7; Cycle 1 Days 1, 4, 8, 12, and 15 and Cycle 2 Day 1 in Cohorts 8–12. Tumour imaging assessments using computed tomography or magnetic resonance imaging of the chest and abdomen/pelvis were performed at screening (≤28 days prior to initiation of treatment), and then every 2 cycles.
The safety analysis set comprised all patients who received at least one dose of AZD2811. The PK analysis set comprised all patients who received at least one dose of AZD2811 with at least one reportable concentration. […] There was no formal statistical analysis of safety and efficacy data. The numbers of patients experiencing each AE were summarised by Medical Dictionary for Regulatory Activities (MedDRA) version 22.1 system organ class, MedDRA preferred term, and CTCAE grade. The ORR and best overall response based on RECIST 1.1 were summarised. AZD2811 blood concentrations and derived PK parameters were summarised by dose regimen. […]

CCN(CCO)CCCOc1ccc2c(Nc3cc(CC(=O)Nc4cccc(F)c4)n[nH]3)ncnc2c1 [AZD2811, AZD1152 hydroxyquinazoline pyrazole anilide]
MTD/RP2D (Day 1 of a 21-day cycle with mandatory G-CSF on Day 8): 500 mg
Dose reduction due to AZD2811-related AEs, patients (human, in vivo): 4.5%
Dose reductions due to AZD2811-related AEs, patients (human, in vivo): 17.2%
Doses at which ANC counts <500 cells/μL were observed (human, in vivo): ≥ 200 mg/cycle
Doses that elicit a pharmacological response in bone marrow (human, in vivo): > 200 mg/cycle
Neutropenia (in vivo): not observed
Patients with dose-limiting toxicities (in vivo): Five
Deaths due to AEs on treatment (not considered related to AZD2811: cardiac arrest (Cohort 9), sepsis (Cohort 11)): Two
